From PubChem BioAssay (NCI)
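Five compound concentrations were applied to cells in 96-well plates for 48 hours; endpoints were derived by simple linear interpolation of the resulting dose-response curve. GI50 = concentration required for 50% inhibition of growth. At the TGI there is no net growth.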

Assays:
Assay in all cases: NCI tumour cell line growth inhibition, 48 h
[1] = tested on: KM12 colon
[2] = tested on: SN12C renal
[3] = tested on: SF-295 CNS
[4] = tested on: SK-MEL-5 melanoma
[5] = tested on: SK-MEL-28 melanoma
[6] = tested on: ACHN renal
[7] = tested on: HL-60(TB) leukemia
[8] = tested on: MDA-MB-231 breast
[9] = tested on: MDA-MB-435
[10] = tested on: OVCAR-4 ovarian

`CCCCCCCCC/C=C1\CCC(CN(C)C)C1=O` (stereo not drawn) gave a TGI [1] of 3.84 µM, a TGI [2] of 4.34 µM and a TGI [3] of 12.7 µM. For the same molecule, the TGI [4] was 3.9 µM, the TGI [5] was 4.28 µM and the TGI [6] was 4.98 µM. For the same molecule, the TGI [7] was 5.31 µM.
Molecule `Oc1c(Cl)c(Cl)c(O)c2c1CCCC2` has a TGI [1] of 30.2 µM, a TGI [2] of 30.2 µM and a TGI [3] of 37.6 µM. The TGI [8] was 41.9 µM, the TGI [4] was 25.7 µM and the TGI [5] was 27.7 µM. The TGI [9] was 34.1 µM and the TGI [6] was 3.27 µM.
Work on `COc1cccc(NC(=O)CC(=O)N2N=C(n3ccc4ccccc43)CC2c2ccccc2)c1` (stereo not drawn) yielded a TGI [1] of over 100 µM, a TGI [2] of over 100 µM and a TGI [3] of over 100 µM. It also gave a TGI [5] of over 100 µM, a TGI [6] of over 100 µM and a TGI [7] of over 100 µM. It also gave a TGI [10] of over 100 µM.
In the case of `COc1cc([N+](=O)[O-])c(OC)cc1-c1nc2sccn2c1/C=N/N=C(N)N`, the GI50 [1] is reported as 4.36 µM, the TGI [1] is reported as over 100 µM and the GI50 [2] is reported as 9.36 µM. The TGI [2] was 42.1 µM, the GI50 [3] was 19.5 µM and the TGI [3] was over 100 µM. For the same molecule, the GI50 [8] was 24.2 µM, the TGI [8] was 69.5 µM and the GI50 [4] was 33.7 µM. The TGI [4] was over 100 µM, the GI50 [5] was 27.9 µM and the TGI [5] was 63.4 µM. For the same molecule, the GI50 [9] was 15.5 µM, the TGI [9] was 52.3 µM and the GI50 [6] was 12.8 µM. For the same molecule, the TGI [6] was 28.8 µM, the GI50 [10] was 52.2 µM and the TGI [10] was over 100 µM.
Work on `COc1cccc(NC(=O)CC(=O)N2N=C(N3c4ccccc4Sc4ccccc43)CC2c2ccccc2)c1` (stereo not drawn) yielded a TGI [1] of over 100 µM, a TGI [2] of over 100 µM and a TGI [3] of over 100 µM. The TGI [4] was over 100 µM, the TGI [5] was over 100 µM and the TGI [6] was over 100 µM. For the same molecule, the TGI [10] was over 100 µM.
`O=C(O)C(CS)NCc1c2ccccc2nc2ccccc12` (stereo not drawn) showed a TGI [1] of over 100 µM, a TGI [2] of over 100 µM and a TGI [3] of over 100 µM. For the same molecule, the TGI [5] was over 100 µM, the TGI [6] was over 100 µM and the TGI [7] was 62 µM. It also gave a TGI [10] of 37.6 µM.
`COc1ccc(N(/C=C/C(=O)C(F)(F)F)CC(=O)c2ccc(F)cc2)cc1` showed a GI50 [1] of 21.6 µM, a TGI [1] of 56 µM and a GI50 [2] of 14.7 µM. For the same molecule, the TGI [2] was 33.8 µM, the GI50 [3] was 27.4 µM and the TGI [3] was 91 µM. It also gave a GI50 [8] of 16.1 µM, a TGI [8] of 48.4 µM and a GI50 [4] of 14.8 µM. The TGI [4] was 32 µM, the GI50 [5] was 41.1 µM and the TGI [5] was over 100 µM. For the same molecule, the GI50 [9] was 19.9 µM, the TGI [9] was 52.2 µM and the GI50 [6] was 16.3 µM. It also gave a TGI [6] of 41.2 µM, a GI50 [10] of 45.3 µM and a TGI [10] of over 100 µM.
Work on `CCOC(=O)C1CCCCN1C(=O)c1ccc(Nc2cnc3cc(C(F)(F)F)ccc3n2)cc1` (stereo not drawn) yielded a GI50 [1] of 13.1 µM, a TGI [1] of 27.8 µM and a GI50 [2] of 16.2 µM. The TGI [2] was 31.5 µM, the GI50 [3] was 3.31 µM and the TGI [3] was 9.24 µM. For the same molecule, the GI50 [8] was 2.86 µM, the TGI [8] was 5.66 µM and the GI50 [4] was 12.4 µM. It also gave a TGI [4] of 25.1 µM, a GI50 [9] of 14.7 µM and a TGI [9] of 28.3 µM. The GI50 [6] was 15.4 µM, the TGI [6] was 43.4 µM and the GI50 [7] was 19.1 µM. The TGI [7] was over 100 µM.
`CC(=O)O[C@H]1CCC2[C@@H]3CCC4c5nonc5CC[C@]4(C)C3CC[C@@]21C` (stereo partly drawn) showed a GI50 [1] of over 100 µM, a TGI [1] of over 100 µM and a TGI [2] of over 10 µM. The TGI [3] was over 10 µM, the TGI [4] was over 10 µM and the TGI [5] was over 10 µM. For the same molecule, the GI50 [6] was over 10 µM, the TGI [6] was over 100 µM and the GI50 [7] was over 100 µM. It also gave a TGI [7] of over 100 µM and a TGI [10] of over 10 µM.
For `Nc1ncnc2c1c(-c1ccc(Oc3ccccc3)cc1)nn2C[C@@H]1SSC[C@H]1O`, the GI50 [1] was 0.208 µM, the TGI [1] was 16.7 µM and the GI50 [2] was 2.31 µM. The TGI [2] was 10.2 µM, the GI50 [3] was 2.7 µM and the TGI [3] was 9.25 µM. The GI50 [8] was 1.8 µM, the TGI [8] was 5.45 µM and the GI50 [4] was 0.874 µM. For the same molecule, the TGI [4] was 2.3 µM, the GI50 [5] was 0.084 µM and the TGI [5] was 12 µM. For the same molecule, the GI50 [6] was 2.02 µM, the TGI [6] was 10.5 µM and the GI50 [7] was 1.84 µM. It also gave a TGI [7] of 6.79 µM, a GI50 [10] of 2.12 µM and a TGI [10] of over 83.4 µM.
In the case of `COC(=O)C1=C(C)NC(C)=C(C(=O)OCC(C)C)C1c1ccccc1[N+](=O)[O-]` (stereo not drawn), the GI50 [1] is reported as 2.94 µM, the TGI [1] is reported as over 100 µM and the GI50 [2] is reported as 4.15 µM. It also gave a TGI [2] of 19.8 µM, a GI50 [8] of 4.04 µM and a TGI [8] of 17.1 µM. It also gave a GI50 [4] of 2.72 µM, a TGI [4] of 10.1 µM and a GI50 [5] of 4.18 µM. The TGI [5] was 15.2 µM, the GI50 [9] was 4.25 µM and the TGI [9] was 17.6 µM. For the same molecule, the GI50 [6] was 2.22 µM, the TGI [6] was 10.6 µM and the GI50 [7] was 2.73 µM. For the same molecule, the TGI [7] was 9.46 µM, the GI50 [10] was 2.32 µM and the TGI [10] was 11.8 µM.
Work on `CC(C)(c1ccccc1)c1ccc(Oc2ccc(C#N)c(C#N)c2)cc1` yielded a GI50 [1] of over 100 µM, a TGI [1] of over 100 µM and a GI50 [2] of over 100 µM. It also gave a TGI [2] of over 100 µM, a TGI [3] of over 100 µM and a TGI [4] of over 100 µM. It also gave a GI50 [5] of over 100 µM, a TGI [5] of over 100 µM and a TGI [6] of over 100 µM. The TGI [7] was over 100 µM and the TGI [10] was over 100 µM.
Molecule `CCc1ccccc1NC(=O)/C(N=O)=C(/C)O` has a TGI [1] of over 100 µM, a TGI [2] of over 100 µM and a TGI [3] of over 100 µM. It also gave a TGI [4] of over 100 µM, a TGI [5] of over 100 µM and a TGI [6] of over 100 µM. The TGI [7] was over 100 µM and the TGI [10] was over 100 µM.
In the case of `O=S(=O)(/C=C/CS(=O)(=O)c1ccccc1)c1ccccc1`, the TGI [1] is reported as 32.3 µM, the TGI [2] is reported as 88 µM and the TGI [3] is reported as 93.6 µM. It also gave a TGI [4] of over 100 µM, a TGI [5] of over 100 µM and a TGI [6] of over 100 µM. The TGI [7] was 37.9 µM and the TGI [10] was over 100 µM.
`COc1ccc(C(=O)/C=C/c2cccc(Nc3ccnc4cc(Cl)ccc34)c2)cc1` showed a GI50 [1] of 2.45 µM, a TGI [1] of over 100 µM and a GI50 [3] of 0.694 µM. It also gave a TGI [3] of 16.3 µM, a GI50 [9] of 2.13 µM and a TGI [9] of over 100 µM. For the same molecule, the GI50 [7] was 2.98 µM and the TGI [7] was over 100 µM.
`CN(C)C(=O)c1cnc2oc3ccc(O)cc3c2c1-c1ccccc1` was tested, and the GI50 [1] was over 25 µM, the TGI [1] was over 25 µM and the GI50 [3] was over 25 µM. The TGI [3] was over 25 µM, the GI50 [4] was 6.75 µM and the TGI [4] was over 25 µM. It also gave a GI50 [5] of 5.12 µM, a TGI [5] of over 25 µM and a GI50 [9] of over 25 µM. For the same molecule, the TGI [9] was over 25 µM, the GI50 [6] was over 25 µM and the TGI [6] was over 25 µM. The GI50 [7] was over 25 µM and the TGI [7] was over 25 µM.
In the case of `NC(=O)NC12CC3CC(CC(F)(C3)C1)C2`, the TGI [1] is reported as over 100 µM, the TGI [5] is reported as over 100 µM and the TGI [6] is reported as over 100 µM. The TGI [7] was over 100 µM.
Molecule `CN1CCc2[nH]nc(-c3n[nH]c4c3CN(C)CC4)c2C1` has a TGI [1] of over 100 µM, a TGI [2] of over 100 µM and a TGI [3] of over 100 µM. For the same molecule, the TGI [8] was over 100 µM, the TGI [4] was over 100 µM and the TGI [5] was over 100 µM. For the same molecule, the TGI [9] was over 100 µM, the TGI [6] was over 100 µM and the TGI [10] was over 100 µM.
In the case of `CC(=O)[CH-]C(=O)c1ccccc1.CC(=O)[CH-]C(=O)c1ccccc1.CC(=O)[CH-]C(=O)c1ccccc1.[In+3]`, the GI50 [1] is reported as 61.7 µM, the TGI [1] is reported as over 100 µM and the GI50 [2] is reported as 21.2 µM. For the same molecule, the TGI [2] was over 100 µM, the GI50 [3] was 24.2 µM and the TGI [3] was 93.5 µM. The GI50 [5] was 34.2 µM, the TGI [5] was over 100 µM and the GI50 [6] was 35 µM. The TGI [6] was over 100 µM, the GI50 [7] was 14.5 µM and the TGI [7] was 41.2 µM. For the same molecule, the GI50 [10] was 78.8 µM and the TGI [10] was over 100 µM.
`O=C(NC(=Nc1ccccc1)SCCSC(=Nc1ccccc1)NC(=O)c1cccs1)c1cccs1` was tested, and the TGI [1] was over 100 µM, the TGI [2] was over 100 µM and the TGI [3] was over 100 µM. It also gave a TGI [4] of 74 µM, a TGI [5] of over 100 µM and a TGI [6] of over 100 µM. For the same molecule, the TGI [10] was over 100 µM.
